Measurements taken from ChEMBL document CHEMBL6074662, “Antibacterial, Antibiofilm, and Anti-inflammatory Effects of a Novel Thrombin-Derived Peptide in Sepsis Models: Insights into Underlying Mechanisms” (J Med Chem, 2024).
Active and inactive are the calls of the source. The rule behind the calls is not given here.

How the values were obtained:
Escherichia coli [1] = experiment: Antibacterial activity against Escherichia coli KCTC 1682 incubated for 24 hrs in presence of FeCl3 by CLSI based broth microdilution method; type: functional
Pseudomonas aeruginosa [2] = experiment: Synergistic antibacterial activity against multi-drug resistant Pseudomonas aeruginosa CCARM 2095 assessed as fractional inhibitory concentration index by measuring ratio of MIC of Ciprofloxacin in presence of compound to MIC to Ciprofloxacin incubated for 24 hrs by broth microdilution method; type: functional
Pseudomonas aeruginosa [3] = experiment: Anti-biofilm activity against multi-drug resistant Pseudomonas aeruginosa CCARM 2095 assessed as increase in red-stained dead cells at 32 uM incubated for 12 hrs by SYTO9/PI staining based analysis; type: functional, organism-based
Escherichia coli [4] = experiment: Induction of inner membrane permeabilization in Escherichia coli KCTC 1682 at MIC by PI staining based flow cytometry (reference value: 1.51 %); type: functional
RAW264.7 [5] = experiment: Anti-inflammatory activity in mouse RAW264.7 cells assessed as decrease in LPS-induced TNF-alpha level at 2.5 uM pretreated for 1 hr followed by LPS treatment for 16 hrs by ELISA relative to control; type: functional; conditions: time 17 hrs
Staphylococcus aureus [6] = experiment: Synergistic antibacterial activity against methicillin-resistant Staphylococcus aureus CCARM 3089 assessed as fractional inhibitory concentration index by measuring ratio of MIC of Chloramphenicol in presence of compound to MIC to Chloramphenicol incubated for 24 hrs by broth microdilution method; type: functional
Pseudomonas aeruginosa [7] = experiment: Inhibition of biofilm formation in multi-drug resistant Pseudomonas aeruginosa CCARM 2095 at 4 to 8 uM by crystal violet staining based analysis relative to control; type: functional; conditions: dose 4-8 µM
RAW264.7 [8] = experiment: Anti-inflammatory activity in mouse RAW264.7 cells assessed as decrease in LPS-induced IL-6 level at 2.5 uM pretreated for 1 hr followed by LPS treatment for 16 hrs by ELISA relative to control; type: functional; conditions: time 17 hrs
Escherichia coli [9] = experiment: Antibacterial activity against Escherichia coli KCTC 1682 incubated for 24 hrs in presence of CaCl2 by CLSI based broth microdilution method; type: functional
Staphylococcus aureus [10] = experiment: Antibacterial activity against methicillin-resistant Staphylococcus aureus CCARM 3089 incubated for 24 hrs by broth microdilution method; type: functional
Pseudomonas aeruginosa [11] = experiment: Synergistic antibacterial activity against multi-drug resistant Pseudomonas aeruginosa CCARM 2095 assessed as fractional inhibitory concentration index by measuring ratio of MIC of compound in presence of Ciprofloxacin to MIC to compound incubated for 24 hrs by broth microdilution method; type: functional
Staphylococcus aureus [12] = experiment: Synergistic antibacterial activity against methicillin-resistant Staphylococcus aureus CCARM 3089 assessed as fractional inhibitory concentration index by measuring ratio of MIC of Ciprofloxacin in presence of compound to MIC to Ciprofloxacin incubated for 24 hrs by broth microdilution method; type: functional
[13] = Hemolytic activity in sheep RBC incubated for 1 hr by absorbance based assay; type: toxicity, cell-based, Ovis aries; conditions: erythrocyte
Pseudomonas aeruginosa [14] = experiment: Eradication of biofilm formation in multi-drug resistant Pseudomonas aeruginosa CCARM 2095 at 32 uM incubated for 12 hrs by CLSM analysis relative to control; type: functional
Pseudomonas aeruginosa [15] = experiment: Synergistic antibacterial activity against multi-drug resistant Pseudomonas aeruginosa CCARM 2095 assessed as fractional inhibitory concentration index by measuring ratio of MIC of compound in presence of Chloramphenicol to MIC to compound incubated for 24 hrs by broth microdilution method; type: functional
[16] = Effect on secondary structure of drug in LPS assessed as fold increase in formation of alpha-helical conformation at 150 uM by CD analysis relative to HVF18; type: physicochemical
Staphylococcus aureus [17] = experiment: Synergistic antibacterial activity against methicillin-resistant Staphylococcus aureus CCARM 3089 assessed as fractional inhibitory concentration index by measuring ratio of MIC of compound in presence of Chloramphenicol to MIC to compound incubated for 24 hrs by broth microdilution method; type: functional
Escherichia coli [18] = experiment: Antibacterial activity against Escherichia coli KCTC 1682 incubated for 24 hrs in presence of human serum by CLSI based broth microdilution method; type: functional
RAW264.7 [19] = experiment: Anti-inflammatory activity in mouse RAW264.7 cells assessed as decrease in LPS-induced ROS production at 2.5 uM pretreated for 1 hr followed by LPS treatment for 16 hrs by DCFDA staining based analysis relative to control; type: functional; conditions: time 17 hrs
Escherichia coli [20] = experiment: Induction of cytoplasmic membrane potential in Escherichia coli KCTC 1682 at 0.5 to 1 times MIC measured for 500 secs by diSC3-5 dye based analysis; type: functional, organism-based; conditions: time 500.0 sec
Pseudomonas aeruginosa [21] = experiment: Synergistic antibacterial activity against multi-drug resistant Pseudomonas aeruginosa CCARM 2095 assessed as fractional inhibitory concentration index incubated for 24 hrs in presence of Ciprofloxacin by broth microdilution method; type: functional
Pseudomonas aeruginosa [22] = experiment: Antibacterial activity against multi-drug resistant Pseudomonas aeruginosa CCARM 2095 incubated for 24 hrs by broth microdilution method; type: functional
Escherichia coli [23] = experiment: Antibacterial activity against Escherichia coli KCTC 1682 incubated for 24 hrs in presence of NH4Cl by CLSI based broth microdilution method; type: functional
Pseudomonas aeruginosa [24] = experiment: Synergistic antibacterial activity against multi-drug resistant Pseudomonas aeruginosa CCARM 2095 assessed as fractional inhibitory concentration index by measuring ratio of MIC of Oxacillin in presence of compound to MIC to Oxacillin incubated for 24 hrs by broth microdilution method; type: functional
Escherichia coli [25] = experiment: Antibacterial activity against Escherichia coli KCTC 1682 incubated for 24 hrs in presence of KCl by CLSI based broth microdilution method; type: functional
[26] = Hydrophobicity of compound assessed as retention time by RP-HPLC analysis; type: physicochemical
Acinetobacter baumannii = experiment: Antibacterial activity against multidrug-resistant Acinetobacter baumannii 329-53 incubated for 24 hrs by CLSI based broth microdilution method; type: functional
Pseudomonas aeruginosa [27] = experiment: Synergistic antibacterial activity against multi-drug resistant Pseudomonas aeruginosa CCARM 2095 assessed as fractional inhibitory concentration index incubated for 24 hrs in presence of Oxacillin by broth microdilution method; type: functional
Staphylococcus aureus [28] = experiment: Antibacterial activity against Staphylococcus aureus KCTC 1621 incubated for 24 hrs by CLSI based broth microdilution method; type: functional
[29] = Hemolytic activity in sheep RBC at 256 uM incubated for 1 hr by absorbance based assay; type: toxicity, cell-based, Ovis aries, Erythrocyte; conditions: sheep red blood cells, read-out: Activity
Pseudomonas aeruginosa [30] = experiment: Synergistic antibacterial activity against multi-drug resistant Pseudomonas aeruginosa CCARM 2095 assessed as MIC of Chloramphenicol incubated for 24 hrs by broth microdilution method; type: functional
[31] = Effect on secondary structure of drug in SDS assessed as fold increase in formation of alpha-helical conformation at 150 uM by CD analysis relative to HVF18; type: physicochemical
RAW264.7 [32] = experiment: Anti-inflammatory activity in mouse RAW264.7 cells assessed as inhibition of LPS-induced NO production at 5 uM pretreated for 1 hr followed by LPS treatment for 16 hrs by Griess assay relative to control; type: functional; conditions: time 17 hrs
Staphylococcus aureus [33] = experiment: Synergistic antibacterial activity against methicillin-resistant Staphylococcus aureus CCARM 3089 incubated for 24 hrs in presence of Oxacillin by broth microdilution method; type: functional
Salmonella typhimurium = experiment: Antibacterial activity against Salmonella typhimurium KCTC 1926 incubated for 24 hrs by CLSI based broth microdilution method; type: functional, Salmonella enterica subsp. enterica serovar Typhimurium; conditions: Salmonella enterica
[34] = Effect on secondary structure of drug in TFE assessed as fold increase in formation of alpha-helical conformation at 150 uM by CD analysis relative to HVF18; type: physicochemical

Row | Substance | MIC (Escherichia coli [1]) [µM] | FIC (Pseudomonas aeruginosa [2]) | Activity (Pseudomonas aeruginosa [3]) | Activity (Escherichia coli [4]) [%] | inhibition at 2.5 µM (RAW264.7 [5]) [%] | FIC (Staphylococcus aureus [6]) | inhibition (INH) (Pseudomonas aeruginosa [7]) [%] | inhibition at 2.5 µM (RAW264.7 [8]) [%] | MIC (Escherichia coli [9]) [µM] | MIC (Staphylococcus aureus [10]) [µM] | FIC (Pseudomonas aeruginosa [11]) | FIC (Staphylococcus aureus [12]) | HC10 [13] [µM] | Activity (Pseudomonas aeruginosa [14]) [%] | FIC (Pseudomonas aeruginosa [15]) | fold change (FC) [16] | FIC (Staphylococcus aureus [17]) | MIC (Escherichia coli [18]) [µM] | inhibition at 2.5 µM (RAW264.7 [19]) [%] | Activity (Escherichia coli [20]) | further results
1 | H-GVFRLKKWIKKVIKKWGK-NH2 | 32 | 0.125 | Active | ~100 | 2.6 | 0.25 | >50 | 28.6 | 32 | 8 | 0.5 | 0.5 | > 256 | >50 | 0.25 | ~ 5 | 0.25 | 32 | 14.9 | Active | fractional inhibitory concentration index (FICI) (Pseudomonas aeruginosa [21]): 0.625; MIC (Pseudomonas aeruginosa [22]): 8 µM; MIC (Escherichia coli [23]): 16 µM; FIC (Pseudomonas aeruginosa [24]): 0.031; MIC (Escherichia coli [25]): 32 µM; Retention_time [26]: 20.06 min; MIC (Acinetobacter baumannii): 4 µM; fractional inhibitory concentration index (FICI) (Pseudomonas aeruginosa [27]): 0.281; MIC (Staphylococcus aureus [28]): 8 µM; hemolysis at 1 h, 256 µM [29]: 8.9%; MIC (Pseudomonas aeruginosa [30]): 512 µM; fold change (FC) [31]: ~ 5; inhibition at 5 µM (RAW264.7 [32]): 89%; MIC (Staphylococcus aureus [33]): 0.5 µM; MIC (Salmonella typhimurium): 4 µM; fold change (FC) [34]: ~ 5
2 | H-GVFRLKKWLKKVKKWGK-NH2 | 32 | 0.25 | Active | ~100 | 32.3 | 0.5 | >50 | 98.5 | 16 | 8 | 0.5 | 0.5 | > 256 | >50 | 0.25 | ~ 5 | 0.063 | 32 | 38.2 | Active | fractional inhibitory concentration index (FICI) (Pseudomonas aeruginosa [21]): 0.75; MIC (Pseudomonas aeruginosa [22]): 8 µM; MIC (Escherichia coli [23]): 16 µM; FIC (Pseudomonas aeruginosa [24]): 0.031; MIC (Escherichia coli [25]): 16 µM; Retention_time [26]: 21.66 min; MIC (Acinetobacter baumannii): 4 µM; fractional inhibitory concentration index (FICI) (Pseudomonas aeruginosa [27]): 0.281; MIC (Staphylococcus aureus [28]): 8 µM; hemolysis at 1 h, 256 µM [29]: 9.1%; MIC (Pseudomonas aeruginosa [30]): 512 µM; fold change (FC) [31]: ~ 5; inhibition at 5 µM (RAW264.7 [32]): 91.6%; MIC (Staphylococcus aureus [33]): 0.5 µM; MIC (Salmonella typhimurium): 8 µM; fold change (FC) [34]: ~ 5
